Several values for one entry are separate records, joined by “and”; a condition that tells them apart may be missing. Equal values may be shown once.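 Step 1: Grow cells in 96-well plates. Step 2: Expose to compound for 48 hours at 5 concentrations. Step 3: Interpolate endpoints linearly; if unreached, use highest concentration. Abbreviation: GI50, concentration required for 50% inhibition of growth. TGI: concentration producing complete growth inhibition.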
Legend:
Assay in all cases: inhibition of tumour cell growth, NCI panel, 48 h
MOLT-4 leukemia = tested on: MOLT-4 leukemia
RPMI-8226 leukemia = tested on: RPMI-8226 leukemia
IGROV1 ovarian = tested on: IGROV1 ovarian
NCI/ADR-RES ovarian = tested on: NCI/ADR-RES ovarian
OVCAR-8 ovarian = tested on: OVCAR-8 ovarian
HOP-62 NSCLC = tested on: HOP-62 NSCLC
M14 melanoma = tested on: M14 melanoma
HT29 colon = tested on: HT29 colon
A498 renal = tested on: A498 renal
SK-MEL-5 melanoma = tested on: SK-MEL-5 melanoma

SMILES | GI50 (MOLT-4 leukemia) | TGI (MOLT-4 leukemia) | GI50 (RPMI-8226 leukemia) | TGI (RPMI-8226 leukemia) | GI50 (IGROV1 ovarian) | TGI (IGROV1 ovarian) | GI50 (NCI/ADR-RES ovarian) | TGI (NCI/ADR-RES ovarian) | GI50 (OVCAR-8 ovarian) | TGI (OVCAR-8 ovarian) | GI50 (HOP-62 NSCLC) | TGI (HOP-62 NSCLC) | GI50 (M14 melanoma) | TGI (M14 melanoma) | GI50 (HT29 colon) | TGI (HT29 colon) | GI50 (A498 renal) | TGI (A498 renal) | GI50 (SK-MEL-5 melanoma) | TGI (SK-MEL-5 melanoma)
NC(=O)c1cccc(Nc2nccc(Nc3cccc4[nH]ncc34)n2)c1 | 12.8 µM | > 25 µM | > 25 µM | > 25 µM | 10.5 µM | > 25 µM | > 25 µM | > 25 µM | 8.11 µM | > 25 µM | 9.28 µM | > 25 µM | 9.59 µM | > 25 µM | 9.68 µM | > 25 µM | 5 µM | 22.7 µM | 6.96 µM | > 25 µM
CCN(CC)CCCC(C)N=C(C1=C(C(=NC(C)CCCN(CC)CC)c2cccc(OC)c2)C(=O)NC1=O)c1cccc(OC)c1 (centres undefined) | 1.33 µM | 4.24 µM | 1.23 µM | 3.26 µM | 3.67 µM | 20.6 µM | 2.84 µM | 12.2 µM | 1.18 µM | 6.9 µM | 0.825 µM | 2.34 µM | 0.89 µM | 1.68 µM | 0.631 µM | 1.79 µM | 1.85 µM | 8.38 µM | 0.888 µM | 1.66 µM
Cc1sc2c(c1C)C(c1ccc(Cl)cc1)=N[C@@H](CC(=O)OC(C)(C)C)c1nnc(C)n1-2 | 1.61 µM and 1.81 µM | 23 µM and 17.8 µM | 0.142 µM and 0.0397 µM | 2.92 µM and 0.477 µM | 0.808 µM and 0.645 µM | 25 µM and 18.9 µM | 0.506 µM and 0.396 µM | 24 µM and 20.9 µM | 0.875 µM and 0.62 µM | 26.8 µM and 20.5 µM | 0.253 µM and 0.121 µM | 17.1 µM and 16.4 µM | 0.436 µM and 0.772 µM | 19.6 µM and 21.7 µM | 0.209 µM and 0.0986 µM | 14.9 µM | 0.267 µM and 0.0617 µM | 1.46 µM and 1.15 µM | 0.0966 µM and 0.337 µM | 4.27 µM and 14.2 µM
O=C(OCc1ncc(-c2ccc(C(F)(F)F)cc2)c(NC2CCCCCC2)n1)c1c(F)c(F)c(F)c(F)c1F | 3.42 µM | 11.8 µM | 3.07 µM | 9.95 µM | 2.86 µM | 7.28 µM | 21.2 µM | 55.5 µM | 12.2 µM | 34 µM | 18.8 µM | 34.3 µM | 17.3 µM | 39.6 µM | 13.8 µM | 40 µM | 18.7 µM | 33.2 µM | 16 µM | 30.3 µM
Cc1cc(N2CCSCC2)nc(NC2CCCC(Nc3ccnc4cc(Cl)ccc34)C2)n1 (centres undefined) | 1.55 µM | 5.34 µM | 1.64 µM | 4.39 µM | 1.97 µM | 5.39 µM | 2.01 µM | 5.15 µM | 2.5 µM | 5.51 µM | 1.69 µM | 3.38 µM | 1.85 µM | 3.72 µM | 1.61 µM | 3.98 µM | 2.07 µM | 4.64 µM | 1.72 µM | 3.11 µM
COc1ccc(OC)c2c1[nH]c(=O)c1c3ncccc3cn21 | 3.59 µM | > 100 µM | 6.78 µM | > 100 µM | 3.21 µM | > 100 µM | 2.56 µM | > 100 µM | 2.53 µM | > 100 µM | 3.22 µM | > 100 µM | 4.49 µM | > 100 µM | 1.49 µM | 4.34 µM | 3.95 µM | > 100 µM | 3.79 µM | > 100 µM
Cc1nc(N2CCC3(CC2)CO[C@@H](C)[C@H]3N)c(CO)nc1Sc1ccnc(N)c1Cl | > 100 µM | > 100 µM | 49.3 µM | > 100 µM | 0.629 µM | > 100 µM | 47.3 µM | > 100 µM | 75.6 µM | > 100 µM | 28 µM | > 100 µM | > 100 µM | > 100 µM | > 100 µM | > 100 µM | 0.657 µM | > 100 µM | 14.1 µM | 35 µM
CC(C)(C)CC(C)(C)NCc1cc(C(C)(C)C)cc(CNC(C)(C)CC(C)(C)C)c1O | 2.93 µM | 9.34 µM | 2.46 µM | 6.49 µM | 3.93 µM | 15.9 µM | 2.81 µM | 11.7 µM | 3.25 µM | 12.4 µM | 4.69 µM | 17.9 µM | 1.95 µM | 4.16 µM | 2.4 µM | 9.7 µM | 2.53 µM | 11.3 µM | 1.61 µM | 2.96 µM
COc1cc(Nc2nc3ccccc3cc2C(=O)Nc2ccc(F)c(F)c2)cc(OC)c1OC | 2.04 µM | 6.15 µM | 2.16 µM | 6.07 µM | 4.08 µM | > 100 µM | 2.49 µM | 7.21 µM | 2.77 µM | 7.85 µM | 2.73 µM | 12.2 µM | 2.74 µM |  | 3.59 µM | > 100 µM | 2.39 µM | 8.25 µM | 1.62 µM | 3.11 µM
O=C(/C=C/c1ccccc1)n1c(-c2ccc(Cl)cc2)nc2ccccc21 | 1.13 µM | 6.73 µM | 0.614 µM | 3.82 µM | 1.95 µM | 4.63 µM | 1.49 µM | 61.3 µM | 0.752 µM | 10.3 µM | 2.72 µM | 5.17 µM | 1.91 µM | 5.05 µM | 1.51 µM | 3.71 µM | 1.17 µM | 2.56 µM | 1.64 µM | 3.12 µM
CNC(=O)Cc1nc(-c2cccc(NS(=O)(=O)c3c(F)cccc3F)c2F)c(-c2ccnc(Nc3ccccc3)n2)s1 | 12.5 µM | > 50 µM | 14.3 µM | > 47.9 µM | 0.462 µM | > 19.6 µM | > 50 µM | > 50 µM | 7.32 µM | > 50 µM | 3.27 µM | > 50 µM | 0.0108 µM | 6.58 µM | 0.0327 µM | > 50 µM | 2.6 µM | 18.5 µM | 0.0866 µM | > 19.8 µM
Cc1cccc(C)c1NC(=O)Nc1ccc(S(N)(=O)=O)cc1 |  | > 100 µM |  | > 100 µM |  | > 100 µM |  | > 100 µM |  | > 100 µM |  | > 100 µM |  | > 100 µM |  | > 100 µM |  | > 100 µM |  | > 100 µM
COc1ccc(-c2c3c(n(C4OC(COC(C)=O)C(OC(C)=O)C(OC(C)=O)C4OC(C)=O)c(=S)c2C#N)CC(C)(C)CC3=O)cc1 (centres undefined) |  | 57.1 µM and > 100 µM |  | 72.1 µM and > 100 µM |  | > 100 µM | 41.6 µM and > 100 µM | > 100 µM | 22.1 µM and > 100 µM | 75.4 µM and > 100 µM |  | > 100 µM | 49.7 µM and > 100 µM | > 100 µM |  | > 100 µM | 42.1 µM and > 100 µM | > 100 µM | 23.1 µM and 61.1 µM | 75.7 µM and > 100 µM
COc1ccc2nc3cc([N+](=O)[O-])ccc3c(NCCCN(C)C)c2c1 | 0.0432 µM | 0.68 µM | 0.038 µM | 0.437 µM | 0.363 µM | 3.59 µM | 2.46 µM | 14.2 µM | 0.0895 µM | 1.59 µM | 0.0315 µM | 0.202 µM | 0.176 µM | 0.412 µM | 0.0397 µM | 1.12 µM | 1.87 µM | 5.72 µM | 0.187 µM | 0.832 µM
COc1cccc(C2c3cc4c(cc3OC(N3CCCC3)C2C)OCO4)c1O (centres undefined) |  | 93 µM |  | 27.9 µM |  | 99.1 µM |  | 47.1 µM |  | 42 µM |  | 45.7 µM |  | 12.6 µM |  | 14.7 µM |  | 33.7 µM |  | 16.3 µM
C=C1CCC2C(C)(COC(=O)CC)C(OC(=O)CC)CCC2(C)C1C/C=C1/C(=O)OCC1OC(=O)CC (centres undefined) | 2.62 µM | 11.6 µM | 3.77 µM | > 100 µM | 1.9 µM | 3.69 µM | 2.84 µM | 10.5 µM | 0.634 µM | 2.13 µM | 1.7 µM | 3.27 µM | 1.94 µM | 4.66 µM | 0.987 µM | 2.24 µM | 4.05 µM | 13.3 µM | 2.08 µM | 4.39 µM
COc1ccccc1CNCCCN1C(=O)c2ccc3c4c(ccc(c24)C1=O)C(=O)N(CCCCNCCCN)C3=O | 0.389 µM | 1.7 µM | 1.91 µM | 10.7 µM | 1.43 µM | 3.86 µM | 5.98 µM | 34.2 µM | 0.71 µM | 3.67 µM | 2.93 µM | 10.4 µM | 1.89 µM | 3.5 µM | 0.95 µM | 3.37 µM | 3.12 µM | 12.8 µM | 0.467 µM | 0.95 µM
COc1cccc(NC(=O)c2sc3nc4c(cc3c2N)C(=O)CCC4)c1 | 0.553 µM | > 100 µM | 0.332 µM | > 100 µM | 0.381 µM | > 100 µM | 0.102 µM | > 45.9 µM | 0.402 µM | > 100 µM | 0.337 µM | > 100 µM | 0.0943 µM | > 100 µM | 0.0866 µM | > 100 µM | 0.0521 µM | 0.83 µM | 0.064 µM | > 100 µM
